Laboratory results from publication PMC3961306, “Comparison of the Cancer Gene Targeting and Biochemical Selectivities of All Targeted Kinase Inhibitors Approved for Clinical Use” (PLoS ONE, 2014).

Legend:
Assay in all cases: Kinase profiling in a biochemical assay panel (mobility shift assays and ELISA), %-inhibition at 1 μM; selectivity entropy
[1] = biological target: T1, panel of more than 300 wild-type and mutant kinases (313 kinase panel) (Homo sapiens, UniProt O14733); settings: kinase MAP2K7; compound at 1 μM
T1 sequence (O14733 1-419): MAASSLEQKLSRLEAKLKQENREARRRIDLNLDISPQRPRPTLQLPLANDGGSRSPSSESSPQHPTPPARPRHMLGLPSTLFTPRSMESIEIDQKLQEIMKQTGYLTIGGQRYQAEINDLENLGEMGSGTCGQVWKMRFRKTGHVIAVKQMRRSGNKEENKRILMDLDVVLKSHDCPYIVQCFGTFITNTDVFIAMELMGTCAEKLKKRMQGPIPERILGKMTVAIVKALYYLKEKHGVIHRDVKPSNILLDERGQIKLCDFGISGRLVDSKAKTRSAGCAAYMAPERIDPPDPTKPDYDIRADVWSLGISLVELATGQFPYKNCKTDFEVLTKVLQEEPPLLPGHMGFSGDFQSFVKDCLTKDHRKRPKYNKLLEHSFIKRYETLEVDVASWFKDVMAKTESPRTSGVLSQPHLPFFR

[2] = biological target: T2, panel of more than 300 wild-type and mutant kinases (313 kinase panel) (Homo sapiens, UniProt P42681); settings: kinase TXK; compound at 1 μM
T2 sequence (P42681 1-527): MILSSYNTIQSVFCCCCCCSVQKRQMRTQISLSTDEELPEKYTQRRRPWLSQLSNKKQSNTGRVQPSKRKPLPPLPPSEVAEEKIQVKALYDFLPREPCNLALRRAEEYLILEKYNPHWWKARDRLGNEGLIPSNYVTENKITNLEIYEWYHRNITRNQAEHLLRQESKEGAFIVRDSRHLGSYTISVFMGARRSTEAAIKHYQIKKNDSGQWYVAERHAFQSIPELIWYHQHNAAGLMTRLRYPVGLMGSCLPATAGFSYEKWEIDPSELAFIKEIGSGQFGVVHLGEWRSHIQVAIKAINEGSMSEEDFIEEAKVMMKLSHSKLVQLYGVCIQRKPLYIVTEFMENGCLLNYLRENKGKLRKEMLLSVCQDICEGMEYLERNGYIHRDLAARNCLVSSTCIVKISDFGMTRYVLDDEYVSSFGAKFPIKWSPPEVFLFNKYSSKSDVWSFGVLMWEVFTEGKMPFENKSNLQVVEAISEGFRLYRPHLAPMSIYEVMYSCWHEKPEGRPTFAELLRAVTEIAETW

[3] = biological target: panel of more than 300 wild-type and mutant kinases (313 kinase panel) (Homo sapiens, UniProt P09769); settings: kinase FGR; compound at 1 μM
[4] = biological target: panel of more than 300 wild-type and mutant kinases (313 kinase panel) (Homo sapiens, UniProt P07333); settings: kinase FMS; compound at 1 μM
[5] = biological target: T3, panel of more than 300 wild-type and mutant kinases (313 kinase panel) (Homo sapiens, UniProt Q8TDC3); settings: kinase BRSK1; 1 μM compound
T3 sequence (Q8TDC3 1-778): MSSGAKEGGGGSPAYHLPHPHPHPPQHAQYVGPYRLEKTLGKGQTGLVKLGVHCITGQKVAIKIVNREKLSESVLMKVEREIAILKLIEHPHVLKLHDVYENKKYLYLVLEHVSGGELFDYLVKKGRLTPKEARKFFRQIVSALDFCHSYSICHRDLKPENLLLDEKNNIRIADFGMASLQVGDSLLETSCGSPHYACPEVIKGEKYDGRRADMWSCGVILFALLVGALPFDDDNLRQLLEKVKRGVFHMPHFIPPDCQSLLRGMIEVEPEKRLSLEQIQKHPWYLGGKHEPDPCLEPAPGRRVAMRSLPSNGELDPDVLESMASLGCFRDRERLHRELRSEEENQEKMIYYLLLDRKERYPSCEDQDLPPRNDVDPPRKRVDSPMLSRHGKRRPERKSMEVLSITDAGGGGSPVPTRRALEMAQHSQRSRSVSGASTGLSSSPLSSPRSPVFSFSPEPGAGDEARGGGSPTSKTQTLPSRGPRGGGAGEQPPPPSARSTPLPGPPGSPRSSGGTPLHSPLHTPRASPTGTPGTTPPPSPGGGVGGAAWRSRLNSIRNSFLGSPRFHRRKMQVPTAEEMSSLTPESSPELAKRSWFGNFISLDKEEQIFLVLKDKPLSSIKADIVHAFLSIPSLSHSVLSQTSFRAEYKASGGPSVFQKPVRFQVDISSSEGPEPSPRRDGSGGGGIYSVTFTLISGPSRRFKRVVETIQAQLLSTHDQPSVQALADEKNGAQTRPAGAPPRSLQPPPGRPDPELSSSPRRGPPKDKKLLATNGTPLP

[6] = biological target: panel of more than 300 wild-type and mutant kinases (313 kinase panel) (Homo sapiens, UniProt Q9H0K1); settings: kinase QIK; 1 μM
[7] = biological target: T4, panel of more than 300 wild-type and mutant kinases (313 kinase panel) (Homo sapiens, UniProt Q9UQB9); settings: kinase AurC; 1 μM compound
T4 sequence (Q9UQB9 1-309): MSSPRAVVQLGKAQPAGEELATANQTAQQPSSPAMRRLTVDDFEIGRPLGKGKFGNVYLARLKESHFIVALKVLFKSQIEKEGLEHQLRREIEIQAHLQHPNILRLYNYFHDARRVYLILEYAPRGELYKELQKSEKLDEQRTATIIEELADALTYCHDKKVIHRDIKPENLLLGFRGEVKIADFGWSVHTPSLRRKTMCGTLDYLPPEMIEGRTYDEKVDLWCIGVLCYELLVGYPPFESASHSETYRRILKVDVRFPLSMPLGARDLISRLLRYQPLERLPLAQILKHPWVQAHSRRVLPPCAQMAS

Sequence of panel of more than 300 wild-type and mutant kinases (313 kinase panel) (Homo sapiens, UniProt Q9H0K1) (Q9H0K1 whole entry, change not shown): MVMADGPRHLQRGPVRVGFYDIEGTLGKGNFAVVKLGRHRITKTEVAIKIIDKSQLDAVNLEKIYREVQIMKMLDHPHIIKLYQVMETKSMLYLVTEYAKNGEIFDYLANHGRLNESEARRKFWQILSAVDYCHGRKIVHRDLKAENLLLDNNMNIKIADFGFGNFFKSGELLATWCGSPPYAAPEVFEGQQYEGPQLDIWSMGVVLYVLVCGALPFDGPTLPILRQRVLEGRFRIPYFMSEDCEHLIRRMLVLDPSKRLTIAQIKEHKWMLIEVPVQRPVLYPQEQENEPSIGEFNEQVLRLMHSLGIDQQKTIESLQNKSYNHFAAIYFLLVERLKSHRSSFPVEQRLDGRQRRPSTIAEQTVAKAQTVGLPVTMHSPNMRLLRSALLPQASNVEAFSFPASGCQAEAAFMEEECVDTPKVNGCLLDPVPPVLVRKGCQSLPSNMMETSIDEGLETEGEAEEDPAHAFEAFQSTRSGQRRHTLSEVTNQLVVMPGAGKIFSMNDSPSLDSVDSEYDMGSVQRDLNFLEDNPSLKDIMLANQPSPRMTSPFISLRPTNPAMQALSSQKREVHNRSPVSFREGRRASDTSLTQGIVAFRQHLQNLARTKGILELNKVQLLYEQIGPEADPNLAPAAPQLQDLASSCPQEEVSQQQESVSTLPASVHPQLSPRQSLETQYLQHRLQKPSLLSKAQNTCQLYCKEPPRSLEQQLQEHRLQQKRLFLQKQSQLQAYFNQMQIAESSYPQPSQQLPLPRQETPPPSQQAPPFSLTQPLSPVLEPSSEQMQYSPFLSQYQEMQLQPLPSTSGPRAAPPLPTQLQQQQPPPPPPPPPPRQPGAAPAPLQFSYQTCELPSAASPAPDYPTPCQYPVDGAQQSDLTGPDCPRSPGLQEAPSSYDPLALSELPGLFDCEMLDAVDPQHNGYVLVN

CO[C@H]1C[C@@H]2CC[C@@H](C)[C@@](O)(O2)C(=O)C(=O)N2CCCC[C@H]2C(=O)O[C@H]([C@H](C)C[C@@H]2CC[C@@H](OC(=O)C(C)(CO)CO)[C@H](OC)C2)CC(=O)[C@H](C)/C=C(\C)[C@@H](O)[C@@H](OC)C(=O)[C@H](C)C[C@H](C)/C=C/C=C/C=C/1C [temsirolimus]
%-inhibition of MAP2K7 [1]: 10% | %-inhibition of TXK [2]: -7% | %-inhibition of FGR [3]: -3% | %-inhibition of FMS [4]: -1.41% | %-inhibition, BRSK1 [5]: -14% | %-inhibition of QIK [6]: -3% | %-inhibition, AurC [7]: 0.194%
